The structures appear in SMILES notation.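 How tested: cells in 96-well plates exposed to compound for 48 hours at five concentrations. TGI: concentration producing complete growth inhibition.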

Some test systems named below: A498 renal; CAKI-1 renal; COLO 205 colon; HCC-2998 colon; HOP-62 NSCLC; MALME-3M melanoma; MCF7 breast; MDA-MB-231 breast; MDA-N; NCI-H460 lung; OVCAR-3 ovarian; RPMI-8226 leukemia; SF-295 CNS; SK-MEL-28 melanoma; SK-MEL-5 melanoma; SK-OV-3 ovarian; SN12C renal; TK-10 renal; UO-31 renal.
What all share (assay): NCI-60 cell line screen, 48 h

In the case of `CN(C)Cc1cc(N=Nc2ccccc2Cl)ccc1O`, the TGI worked out at 26.1 µM in the assay with A498 renal; 56.6 µM in the assay on CAKI-1 renal; 28.6 µM in the assay with COLO 205 colon; 26.8 µM in the assay on HCC-2998 colon; 26.2 µM in the assay with HOP-62 NSCLC; 25.9 µM with MALME-3M melanoma. The TGI in the assay with MCF7 breast turned out to be 33.5 µM; in the assay on MDA-MB-231 breast, 86.4 µM; in the assay with MDA-N, 33.4 µM; in the assay with NCI-H460 lung, 18.2 µM; with OVCAR-3 ovarian, 66.9 µM; with RPMI-8226 leukemia it was 81.4 µM. For the same molecule, the TGI in the assay with SF-295 CNS is 41.2 µM; with SK-MEL-28 melanoma, 32.3 µM; in the assay on SK-MEL-5 melanoma it was 24.6 µM; in the assay with SK-OV-3 ovarian, above 100 µM; in the assay on SN12C renal it was above 100 µM; with TK-10 renal it was 65.8 µM. In the assay on UO-31 renal, this molecule yielded a TGI of 36.5 µM.

Take `CSC1=C(C#N)C(=O)N(c2ccc(Cl)cc2)C(=O)C1C#N` (stereo not drawn): the TGI in the assay on A498 renal, in the assay on CAKI-1 renal, with COLO 205 colon, in the assay with HCC-2998 colon, with HOP-62 NSCLC and in the assay on MALME-3M melanoma was above 100 µM throughout. The TGI in the assay with MCF7 breast, in the assay on MDA-MB-231 breast, with MDA-N, in the assay on NCI-H460 lung, in the assay on OVCAR-3 ovarian and in the assay with RPMI-8226 leukemia was above 100 µM each time. In addition, the TGI in the assay with SF-295 CNS, with SK-MEL-28 melanoma, in the assay with SK-MEL-5 melanoma, in the assay with SK-OV-3 ovarian, with SN12C renal and in the assay on TK-10 renal was above 100 µM in each case. In addition, the TGI in the assay with UO-31 renal is above 100 µM.

For `c1cc2[nH]snc2c2cncc12`, the TGI with A498 renal, with CAKI-1 renal, with COLO 205 colon, in the assay with HCC-2998 colon, with HOP-62 NSCLC and in the assay with MALME-3M melanoma was above 100 µM in each case. For the same molecule, the TGI in the assay with MCF7 breast, with MDA-MB-231 breast, in the assay on MDA-N, with NCI-H460 lung, with OVCAR-3 ovarian and with RPMI-8226 leukemia was above 100 µM in each case. For the same molecule, the TGI with SF-295 CNS, in the assay on SK-MEL-28 melanoma, with SK-MEL-5 melanoma, in the assay with SK-OV-3 ovarian, with SN12C renal and in the assay on TK-10 renal was above 100 µM each time. The molecule also registered a TGI with UO-31 renal above 100 µM.

As to `CC(C)(Cl)C(Br)CCC(CBr)=C(Cl)CCl` (mixture of isomers), the TGI was above 5.56 µM in the assay on A498 renal; 5.67 µM in the assay on CAKI-1 renal; 1.11 µM in the assay on COLO 205 colon; above 8.02 µM in the assay with HCC-2998 colon; above 6.85 µM with HOP-62 NSCLC; 4.13 µM with MALME-3M melanoma. The TGI with MCF7 breast was 4.79 µM; in the assay on MDA-MB-231 breast, 3.5 µM; with MDA-N, 3.74 µM; with NCI-H460 lung, above 10 µM; with OVCAR-3 ovarian it was above 5.48 µM; with RPMI-8226 leukemia it was 4.39 µM. In addition, the TGI in the assay with SF-295 CNS was above 10 µM; in the assay with SK-MEL-28 melanoma it was 4.41 µM; with SK-MEL-5 melanoma, 3.87 µM; with SK-OV-3 ovarian, above 8.72 µM; with SN12C renal, 0.971 µM; in the assay with TK-10 renal it was above 5.76 µM. Further, the TGI in the assay with UO-31 renal was 3.96 µM.

In the case of `N#CC(c1ccccc1)N(CCc1ccccc1)C(=O)c1ccccc1` (stereo not drawn), the TGI was above 100 µM with A498 renal; above 100 µM in the assay with CAKI-1 renal; above 100 µM with COLO 205 colon; above 100 µM in the assay on HCC-2998 colon; above 85.8 µM in the assay with HOP-62 NSCLC; above 100 µM with MALME-3M melanoma. Also, the TGI in the assay on MCF7 breast, in the assay with MDA-MB-231 breast, with MDA-N, in the assay on NCI-H460 lung, in the assay with OVCAR-3 ovarian and in the assay with RPMI-8226 leukemia was above 100 µM in each case. The TGI with SF-295 CNS, in the assay with SK-MEL-28 melanoma, in the assay on SK-MEL-5 melanoma, in the assay on SK-OV-3 ovarian, in the assay with SN12C renal and in the assay with TK-10 renal was above 100 µM each time. In the assay on UO-31 renal, this molecule yielded a TGI above 100 µM.

On to `CCOC(=O)c1ccc(NC(=O)O/N=C(/Cl)C(C)C)cc1`, for which the TGI in the assay on A498 renal worked out at 28.4 µM; in the assay with CAKI-1 renal, 8.87 µM; with COLO 205 colon, 5.77 µM; in the assay on HCC-2998 colon, 33.2 µM; with HOP-62 NSCLC it was 32.2 µM; in the assay with MALME-3M melanoma, 8.49 µM. Moreover, the TGI came out at 21.3 µM in the assay with MCF7 breast; 39.7 µM in the assay on MDA-MB-231 breast; 32.4 µM in the assay with MDA-N; 38.3 µM with NCI-H460 lung; 11.5 µM in the assay on OVCAR-3 ovarian; 24.8 µM in the assay with RPMI-8226 leukemia. The TGI in the assay on SF-295 CNS was 34.8 µM; in the assay with SK-MEL-28 melanoma it was 31 µM; in the assay on SK-MEL-5 melanoma, 30 µM; in the assay on SK-OV-3 ovarian, 33.4 µM; in the assay with SN12C renal, 44 µM; in the assay on TK-10 renal, 33.5 µM. In addition, the TGI with UO-31 renal was 31.9 µM.

As for `COc1cc(CNc2nc3ccccc3n2Cc2ccccc2)cc(CN2CCOCC2)c1O`, the TGI with A498 renal was 39.2 µM; in the assay on CAKI-1 renal it was above 100 µM; in the assay with COLO 205 colon it was 40.1 µM; with HCC-2998 colon it was 85.1 µM; in the assay on HOP-62 NSCLC, 65.2 µM; in the assay with MALME-3M melanoma, 34 µM. The TGI with MCF7 breast is 79.5 µM; in the assay on MDA-MB-231 breast, 38.1 µM; in the assay on MDA-N it was 68.2 µM; in the assay on NCI-H460 lung, above 100 µM; with OVCAR-3 ovarian, 56.6 µM; with RPMI-8226 leukemia, above 100 µM. Moreover, the TGI in the assay with SF-295 CNS is 41.6 µM; with SK-MEL-28 melanoma it was 34.6 µM; in the assay with SK-MEL-5 melanoma, 34.2 µM; in the assay on SK-OV-3 ovarian, above 100 µM; with SN12C renal, above 100 µM; in the assay with TK-10 renal, 65.9 µM. Besides, in the assay on UO-31 renal, the TGI was 52.5 µM.

For `N#Cc1nc(Sc2cnsn2)c(Sc2cnsn2)nc1C#N`, the TGI worked out at 43.8 µM in the assay with A498 renal; 12.5 µM in the assay on CAKI-1 renal; 19 µM in the assay with COLO 205 colon; 33.5 µM with HCC-2998 colon; 42.4 µM in the assay on HOP-62 NSCLC; 33.3 µM in the assay on MALME-3M melanoma. Further, the TGI with MCF7 breast is above 59.1 µM; in the assay with MDA-MB-231 breast, 48.7 µM; with MDA-N, 49.6 µM; in the assay with NCI-H460 lung it was above 60.9 µM; in the assay on OVCAR-3 ovarian, 22.1 µM; in the assay with RPMI-8226 leukemia, above 100 µM. The TGI with SF-295 CNS is above 58.8 µM; in the assay on SK-MEL-28 melanoma it was 53.6 µM; with SK-MEL-5 melanoma it was 29.4 µM; with SK-OV-3 ovarian, 32.1 µM; in the assay with SN12C renal, 56.3 µM; in the assay with TK-10 renal, 12.1 µM. Further, the TGI with UO-31 renal was 65.6 µM.

`CC(=O)Nc1ccc(-c2nc3ccccc3s2)cc1Cl`: the TGI in the assay on A498 renal, in the assay on CAKI-1 renal, in the assay with COLO 205 colon, in the assay on HCC-2998 colon, with HOP-62 NSCLC and in the assay with MALME-3M melanoma was above 100 µM throughout. In addition, the TGI in the assay on MCF7 breast, in the assay with MDA-MB-231 breast, in the assay on MDA-N, in the assay on NCI-H460 lung, with OVCAR-3 ovarian and with RPMI-8226 leukemia was above 100 µM throughout. For the same molecule, the TGI in the assay with SF-295 CNS was above 100 µM; with SK-MEL-28 melanoma it was above 100 µM; with SK-MEL-5 melanoma it was above 100 µM; with SK-OV-3 ovarian, above 100 µM; in the assay on SN12C renal it was above 100 µM; in the assay with TK-10 renal, 0.445 µM. This molecule returned a TGI with UO-31 renal above 100 µM.

As to `CCN(CC)CCOc1ccc(N2Cc3ccccc3C2=O)cc1`, the TGI in the assay with A498 renal, in the assay with CAKI-1 renal, in the assay with COLO 205 colon, in the assay with HCC-2998 colon, in the assay with HOP-62 NSCLC and in the assay on MALME-3M melanoma was above 10 µM throughout. For the same molecule, the TGI with MCF7 breast, with MDA-MB-231 breast, with MDA-N, in the assay on NCI-H460 lung, in the assay with OVCAR-3 ovarian and in the assay with RPMI-8226 leukemia was above 10 µM each time. Moreover, the TGI with SF-295 CNS, in the assay with SK-MEL-28 melanoma, in the assay with SK-MEL-5 melanoma, with SK-OV-3 ovarian, in the assay with SN12C renal and with TK-10 renal was above 10 µM throughout. For the same molecule, in the assay with UO-31 renal, the TGI was above 10 µM.

In the case of `COc1ccc(C2C3=C(COC3=O)OC(C)(C)Oc3cc4c(cc32)OCO4)cc1` (stereo not drawn), the TGI was 85.2 µM in the assay on A498 renal; above 86.9 µM with CAKI-1 renal; 48.5 µM in the assay on COLO 205 colon; 96.9 µM with HCC-2998 colon; above 100 µM in the assay on HOP-62 NSCLC; above 100 µM in the assay on MALME-3M melanoma. The TGI was above 100 µM in the assay on MCF7 breast; 97.9 µM in the assay on MDA-MB-231 breast; 8.97 µM in the assay with MDA-N; above 92.6 µM in the assay with NCI-H460 lung; above 100 µM in the assay with OVCAR-3 ovarian; above 100 µM in the assay on RPMI-8226 leukemia. Also, the TGI in the assay with SF-295 CNS was above 100 µM; in the assay with SK-MEL-28 melanoma it was above 100 µM; in the assay with SK-MEL-5 melanoma it was 99.8 µM; with SK-OV-3 ovarian it was above 100 µM; in the assay on SN12C renal, above 100 µM; in the assay on TK-10 renal, 97 µM. Further, the TGI in the assay on UO-31 renal was 98.7 µM.

For `Cc1ccc(-c2cn3c(nc4ccccc43)c(-c3ccccc3)n2)cc1`, the TGI is above 86.5 µM in the assay on A498 renal; above 100 µM with CAKI-1 renal; above 100 µM with COLO 205 colon; above 100 µM in the assay with HCC-2998 colon; 43.7 µM in the assay on HOP-62 NSCLC; above 100 µM with MALME-3M melanoma. Also, the TGI with MCF7 breast, in the assay with MDA-MB-231 breast, in the assay with MDA-N, in the assay with NCI-H460 lung, in the assay on OVCAR-3 ovarian and in the assay with RPMI-8226 leukemia was above 100 µM in each case. The TGI in the assay on SF-295 CNS was above 67.1 µM; with SK-MEL-28 melanoma, above 100 µM; with SK-MEL-5 melanoma, above 100 µM; with SK-OV-3 ovarian it was 47.9 µM; in the assay on SN12C renal, above 100 µM; in the assay with TK-10 renal, above 76.5 µM. For the same molecule, the TGI in the assay on UO-31 renal is above 73.9 µM.

Source of the values: PubChem BioAssay (NCI).
